Measured values from ChEMBL document CHEMBL1134610, “Flavonolignan and flavone inhibitors of a Staphylococcus aureus multidrug resistance pump: structure-activity relationships” (2001).
Active and inactive are the calls of the source. The rule behind the calls is not given here.

system: Staphylococcus aureus; experiment: Minimum inhibitory concentration, that inhibits growth of Staphylococcus aureus in the presence of subinhibitory (30 ug/mL) Berberine Inactive; format: functional, organism-based

Q: `COc1cc([C@H]2Oc3cc(-c4oc5cc(OC(C)=O)cc(OC(C)=O)c5c(=O)c4OC(C)=O)ccc3O[C@@H]2COC(C)=O)ccc1OC(C)=O` was tested. Which IA did it give?
A: Its IA is “inactive”.

system: Staphylococcus aureus; experiment: Minimum inhibitory concentration, that inhibits growth of Staphylococcus aureus in the presence of subinhibitory (30 ug/mL) Berberine; Inactive; format: functional, organism-based

Q: With `O=c1cc(-c2ccccc2)oc2c(O)c(O)ccc12` as the compound, how does the IA read?
A: Its IA is “inactive”.

Q: With `COc1cc([C@H]2Oc3cc(-c4oc5cc(O)cc(O)c5c(=O)c4O)ccc3O[C@@H]2CO)ccc1O` as the compound, how does the IA read?
A: The IA was “inactive”.

Q: With `O=c1cc(-c2ccc(OCc3ccccc3)cc2)oc2ccccc12` as the compound, how does the IA read?
A: Its IA is “inactive”.

Q: With `CC(=O)Oc1cc(OC(C)=O)c2c(=O)cc(-c3ccc(OC(C)=O)c(OC(C)=O)c3)oc2c1` as the compound, how does the IA read?
A: The IA was “inactive”.

Q: How did the IA turn out when `O=c1c(O)c(-c2ccc(O)c(O)c2)oc2cc(O)cc(O)c12` was run?
A: Its IA is “inactive”.

Q: For `COc1cc(OC)c2c(=O)cc(-c3ccc(OC)c(OC)c3)oc2c1`, which IA is on record?
A: The IA was “inactive”.

Q: Which IA does the source give for `O=c1cc(-c2ccc(O)c(O)c2)oc2cc(O)cc(O)c12` here?
A: Its IA is “inactive”.

Q: `O=c1cc(-c2ccc(O)cc2)oc2c(O)c(O)ccc12` was tested. Which IA did it give?
A: The IA was “inactive”.

Q: For `O=c1cc(-c2ccc(O)cc2)oc2ccccc12`, which IA is on record?
A: The IA was “inactive”.

Q: `CCCCCCCCCOc1ccc(-c2cc(=O)c3ccccc3o2)cc1` was tested. Which IA did it give?
A: The IA was “inactive”.

Q: With `O=c1cc(-c2ccc(O)c(O)c2)oc2cc(O)ccc12` as the compound, how does the IA read?
A: The IA was “inactive”.

Q: Which IA does the source give for `CC(=O)Oc1ccc2c(=O)cc(-c3ccc(OC(C)=O)c(OC(C)=O)c3)oc2c1` here?
A: The IA was “inactive”.

Q: For `O=c1cc(-c2ccc3c(c2)O[C@H](c2ccc(O)cc2)[C@@H](CO)O3)oc2cc(O)cc(O)c12`, which IA is on record?
A: The IA was “inactive”.

system: Staphylococcus aureus; experiment: Minimum inhibitory concentration, that inhibits growth of Staphylococcus aureus in the presence of subinhibitory (30 ug/mL) Berberine; format: functional

Q: Which MIC does the source give for `COc1ccc(-c2cc(=O)c3c(O)cc(O)cc3o2)cc1O` [DIOSMETIN] here?
A: The MIC was 15 µg/mL.

Q: How did the MIC turn out when `COc1cc([C@H]2Oc3cc(-c4cc(=O)c5c(OC(C)=O)cc(OC(C)=O)cc5o4)ccc3O[C@@H]2COC(C)=O)ccc1OC(C)=O` was run?
A: Its MIC is 0.1 µg/mL.

Q: `O=c1cc(-c2ccccc2)oc2cc(O)cc(O)c12` [CHRYSIN] was tested. Which MIC did it give?
A: The MIC was 25 µg/mL.

Q: With `COc1cc([C@H]2Oc3cc(-c4oc5cc(O)ccc5c(=O)c4O)ccc3O[C@@H]2CO)ccc1O` as the compound, how does the MIC read?
A: Its MIC is 163 µg/mL.

Q: How did the MIC turn out when `COc1cc([C@H]2Oc3cc([C@@H]4CC(=O)c5c(O)cc(O)cc5O4)cc(OC)c3O[C@@H]2CO)ccc1O` was run?
A: Its MIC is 1.9 µg/mL.

Q: `C=CCOc1ccc(-c2cc(=O)c3ccccc3o2)cc1` was tested. Which MIC did it give?
A: Its MIC is 6.3 µg/mL.

Q: `O=c1cc(-c2ccc(OCCO)cc2)oc2ccccc12` was tested. Which MIC did it give?
A: The MIC was 25 µg/mL.

Q: How did the MIC turn out when `COc1cc(OC)c2c(=O)cc(-c3ccccc3)oc2c1` [CHRYSIN DIMETHYL ETHER] was run?
A: Its MIC is 25 µg/mL.

Q: `COc1cc([C@H]2Oc3cc([C@@H]4CC(=O)c5c(O)cc(O)cc5O4)ccc3O[C@@H]2CO)ccc1O` was tested. Which MIC did it give?
A: The MIC was 3.1 µg/mL.

Q: How did the MIC turn out when `COc1cc([C@H]2Oc3cc([C@@H]4CC(=O)c5c(OC(C)=O)cc(OC(C)=O)cc5O4)ccc3O[C@@H]2COC(C)=O)ccc1OC(C)=O` was run?
A: The MIC was 1.6 µg/mL.

Q: `CCOc1ccc(-c2cc(=O)c3ccccc3o2)cc1` was tested. Which MIC did it give?
A: The MIC was 1.6 µg/mL.

Q: With `COc1cc([C@H]2Oc3cc(-c4cc(=O)c5c(O)cc(O)cc5o4)ccc3O[C@@H]2CO)ccc1O` [HYDNOCARPIN] as the compound, how does the MIC read?
A: The MIC was 0.1 µg/mL.

Q: With `COc1cc([C@H]2Oc3cc(-c4cc(=O)c5ccc(O)cc5o4)ccc3O[C@@H]2CO)ccc1O` as the compound, how does the MIC read?
A: Its MIC is 0.8 µg/mL.

Q: With `COc1ccc(-c2cc(=O)c3ccccc3o2)cc1OC` [3',4'-DIMETHOXYFLAVONE] as the compound, how does the MIC read?
A: Its MIC is 6.3 µg/mL.

Q: `COc1cc([C@H]2Oc3ccc(-c4cc(=O)c5c(O)cc(O)cc5o4)cc3O[C@@H]2CO)cc(OC)c1O` was tested. Which MIC did it give?
A: The MIC was 7.8 µg/mL.

Q: Which MIC does the source give for `COc1cc([C@@H]2Oc3ccc4c(=O)cc(-c5ccccc5)oc4c3O[C@H]2CO)ccc1O` here?
A: The MIC was 1.9 µg/mL.

Q: For `COc1cc([C@H]2Oc3cc(-c4cc(=O)c5ccc(OC(C)=O)cc5o4)ccc3O[C@@H]2COC(C)=O)ccc1OC(C)=O`, which MIC is on record?
A: Its MIC is 1.6 µg/mL.

Q: For `COc1ccc(-c2cc(=O)c3ccccc3o2)cc1` [4'-METHOXYFLAVONE], which MIC is on record?
A: Its MIC is 6.3 µg/mL.

Q: For `COc1cc([C@H]2Oc3ccc(-c4cc(=O)c5c(O)cc(O)cc5o4)cc3O[C@@H]2CO)ccc1O`, which MIC is on record?
A: Its MIC is 3.1 µg/mL.

Q: With `COc1cc([C@H]2Oc3cc(-c4cc(=O)c5c(O)cc(O)cc5o4)cc(OC)c3O[C@@H]2CO)ccc1O` as the compound, how does the MIC read?
A: The MIC was 2 µg/mL.

Q: For `CC(C)Oc1ccc(-c2cc(=O)c3ccccc3o2)cc1`, which MIC is on record?
A: The MIC was 1.9 µg/mL.

Q: With `COc1cc([C@H]2Oc3cc(-c4cc(=O)c5ccccc5o4)ccc3O[C@@H]2CO)ccc1O` as the compound, how does the MIC read?
A: The MIC was 0.08 µg/mL.

Q: For `CCCOc1ccc(-c2cc(=O)c3ccccc3o2)cc1`, which MIC is on record?
A: Its MIC is 0.4 µg/mL.

Q: `COc1cc([C@H]2Oc3cc(-c4cc(=O)c5c(O)cc(O)cc5o4)ccc3O[C@@H]2CO)cc(OC)c1O` was tested. Which MIC did it give?
A: Its MIC is 8 µg/mL.

Q: `COc1cc([C@H]2Oc3cc([C@H]4Oc5cc(O)cc(O)c5C(=O)[C@@H]4O)ccc3O[C@@H]2CO)ccc1O` [SILYBIN A] was tested. Which MIC did it give?
A: Its MIC is 12.5 µg/mL.

Q: How did the MIC turn out when `COc1cc([C@@H]2Oc3ccc4c(=O)cc(-c5ccc(O)cc5)oc4c3O[C@H]2CO)ccc1O` was run?
A: The MIC was 0.6 µg/mL.
